# Biological target: T1, SARM1 SAM-TIR (Homo sapiens, UniProt Q6SZW1);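 also: inhibition of SARM1 SAM-TIR NADase activity, i.e. NAD+ cleavage, using lysate of NRK1-HEK293T cells overexpressing the SAM-TIR fragment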
# T1 construct: a fragment of the SARM1 molecule encompassing the SAM and TIR domains; made in house; host or cells: NRK1-HEK293T cells, transiently transfected; the cleared, unpurified lysate was used as the enzyme
# T1 sequence (Q6SZW1 409-724 limits assumed): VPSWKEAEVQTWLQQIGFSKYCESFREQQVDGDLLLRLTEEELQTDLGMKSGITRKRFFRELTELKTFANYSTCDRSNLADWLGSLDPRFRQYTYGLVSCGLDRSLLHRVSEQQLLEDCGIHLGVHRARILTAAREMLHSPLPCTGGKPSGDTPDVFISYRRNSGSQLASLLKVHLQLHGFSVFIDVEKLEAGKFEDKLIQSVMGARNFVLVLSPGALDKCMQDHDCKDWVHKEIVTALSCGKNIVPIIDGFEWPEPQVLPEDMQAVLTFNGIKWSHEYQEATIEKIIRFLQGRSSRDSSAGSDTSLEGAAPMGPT
# Experiment: biochemical
# Conditions: not given
row,SMILES,IC50
1,O=C(c1c(Nc2ccccc2C(F)(F)F)s[nH]c1=O)N1CCCC1 [Example 110],1 to 5 µM
2,N#Cc1c(Nc2cccc(C3=CCNCC3)c2C(F)(F)F)s[nH]c1=O [Example 131],< 1 µM

# Same assay, conditions: SAM-TIR lysate 5 μg/mL, 2 h pre-incubation, 5 μM NAD+, RapidFire MS of NAD+ and ADPR; read-out: SARM1 IC50
row,SMILES,IC50
1,N#Cc1c(O)nsc1Nc1ccccc1C(F)(F)F [Example 6],< 1 µM
2,Cc1ccccc1Nc1snc(O)c1C#N [Example 7],1 to 5 µM
3,N#Cc1c(Nc2c(Cl)ccc3ncccc23)s[nH]c1=O [Example 104],1 to 5 µM
4,N#Cc1c(Nc2ccccc2C(F)(F)F)sn(CCC(=O)O)c1=O [Example 105],< 1 µM
5,COc1ccc2nc(C)ccc2c1Nc1s[nH]c(=O)c1C#N [Example 106],1 to 5 µM
6,CC(C)n1sc(Nc2ccccc2C(F)(F)F)c(C#N)c1=O [Example 107],< 1 µM
7,N#Cc1c(Nc2cccc(C(N)=O)c2C(F)(F)F)s[nH]c1=O [Example 108],1 to 5 µM
8,COc1cccc(C)c1Nc1s[nH]c(=O)c1C#N [Example 109],1 to 5 µM
9,N#Cc1c(Nc2ccccc2C2CC2)s[nH]c1=O [Example 111],1 to 5 µM
10,CN(C(=O)c1c(Nc2ccccc2C(F)(F)F)s[nH]c1=O)C1CCCCC1 [Example 112],1 to 5 µM
11,COc1cccc(OC)c1Nc1s[nH]c(=O)c1C#N [Example 113],1 to 5 µM
12,COCCN(C)C(=O)c1c(Nc2ccccc2C(F)(F)F)sn([C@@H](C)c2ccccc2)c1=O [Example 114],> 5 µM
13,CN(C)C(=O)c1c(Nc2ccccc2C(F)(F)F)s[nH]c1=O [Example 115],1 to 5 µM
14,COCCN(C)C(=O)c1c(Nc2ccccc2C(F)(F)F)s[nH]c1=O [Example 116],> 5 µM
15,O=C(c1c(Nc2ccccc2C(F)(F)F)s[nH]c1=O)N1CCCCC1 [Example 117],1 to 5 µM
16,COCCn1sc(Nc2c(Cl)cccc2Cl)c(C(N)=O)c1=O [Example 118],> 5 µM
17,COCCN(C)C(=O)c1c(Nc2c(Cl)cccc2Cl)s[nH]c1=O [Example 119],> 5 µM
18,N#Cc1c(Nc2cccc(C(=O)O)c2C(F)(F)F)s[nH]c1=O [Example 120],> 5 µM
19,COc1ccc(Cn2sc(N(CCF)c3ccccc3C(F)(F)F)c(C#N)c2=O)cc1 [Example 121],> 5 µM
20,N#Cc1c(Nc2cccc3ncccc23)sn(CCC(N)=O)c1=O [Example 122],< 1 µM
21,COC(=O)c1c(Nc2ccccc2C(F)(F)F)s[nH]c1=O [Example 123],> 5 µM
22,COCCN(C)C(=N)c1c(Nc2cccc(Cl)c2Cl)sn(CCOC)c1=O [Example 124],< 1 µM
23,CN(C)C(=N)c1c(Nc2ccccc2Cl)sn(C)c1=O [Example 125],< 1 µM
24,Cn1sc(Nc2ccccc2Cl)c(C(=N)N2CCOCC2)c1=O [Example 126],< 1 µM

row,SMILES,IC50
1,COCCn1sc(Nc2cccc(Cl)c2Cl)c(C(=N)N2CCCCC2)c1=O [Example 127],< 1 µM
2,C[C@@H](c1ccccc1)n1sc(Nc2ccccc2C(F)(F)F)c(C(=N)N(C)C)c1=O [Example 128],< 1 µM
3,COCCn1sc(Nc2cccc(Cl)c2Cl)c(C(=N)N2CCOCC2)c1=O [Example 130],< 1 µM
4,Cn1sc(Nc2c(Cl)cccc2Cl)c(C(=N)N2CCOCC2)c1=O [Example 132],< 1 µM
5,CN(C)C(=N)c1c(Nc2cccc(Cl)c2Cl)s[nH]c1=O [Example 133],< 1 µM
6,C[C@@H](c1ccccc1)n1sc(Nc2c(Cl)cccc2Cl)c(C(=N)N(C)C)c1=O [Example 134],1 to 5 µM
7,COCCn1sc(Nc2c(OC)cccc2C(F)(F)F)c(C(=N)N(C)C)c1=O [Example 135],1 to 5 µM
8,N=C(c1c(Nc2cccc(Cl)c2Cl)s[nH]c1=O)N1CCOCC1 [Example 136],1 to 5 µM
9,C[C@@H](c1ccccc1)n1sc(Nc2ccccc2C(F)(F)F)c(C(=N)N2CCOCC2)c1=O [Example 137],1 to 5 µM
10,CN(C)C(=N)c1c(Nc2ccccc2C(F)(F)F)s[nH]c1=O [Example 138],1 to 5 µM
11,COCCN(C)C(=N)c1c(Nc2cccc(Cl)c2Cl)s[nH]c1=O [Example 139],1 to 5 µM
12,Cn1sc(Nc2c(F)cccc2Cl)c(C(=O)N2CCOCC2)c1=O [Example 140],1 to 5 µM
13,COCCN(C)C(=N)c1c(Nc2ccccc2C(F)(F)F)s[nH]c1=O [Example 141],1 to 5 µM
14,Cn1sc(Nc2c(Cl)cccc2Cl)c(C(=O)N2CCOCC2)c1=O [Example 143],1 to 5 µM
15,N#Cc1c(Nc2ccc(N3CC[C@@H](N)C3)nc2)s[nH]c1=O [Example 144],1 to 5 µM
16,CN(C)C(=N)c1c(Nc2c(Cl)ccc3ncccc23)s[nH]c1=O [Example 145],1 to 5 µM
17,CN(C)C(=N)c1c(Nc2ccccc2C2CC2)s[nH]c1=O [Example 146],1 to 5 µM
18,C[C@@H](c1ccccc1)n1sc(Nc2ccccc2C(F)(F)F)c(C(=O)N2CCOCC2)c1=O [Example 147],1 to 5 µM
19,O=C(c1c(Nc2ccccc2C(F)(F)F)s[nH]c1=O)N1CCOCC1 [Example 148],1 to 5 µM
20,O=C(c1c(Nc2c(F)cccc2Cl)s[nH]c1=O)N1CCOCC1 [Example 149],1 to 5 µM
21,N#Cc1c(Nc2ccc(N3CC[C@@H](O)C3)nc2)s[nH]c1=O [Example 150],1 to 5 µM
22,N#Cc1c(Nc2ccc3c(c2)ncn3[C@H]2CCNC2)s[nH]c1=O [Example 151],1 to 5 µM
23,COCCn1sc(Nc2ccccc2C(F)(F)F)c(-c2ncon2)c1=O [Example 152],> 5 µM
24,O=C(c1c(Nc2c(Cl)cccc2Cl)s[nH]c1=O)N1CCOCC1 [Example 153],1 to 5 µM

row,SMILES,IC50
1,COc1cccc(C#N)c1Nc1sn(CC(C)(C)O)c(=O)c1C(=O)N1CCOCC1 [Example 154],> 5 µM
2,N#Cc1c(Nc2cccc(C3CCCNC3)c2C(F)(F)F)s[nH]c1=O (stereo not drawn) [Example 157],> 5 µM
3,COc1cccc(C(F)(F)F)c1Nc1sn(C)c(=O)c1C(=O)N1CCOCC1 [Example 158],> 5 µM
4,COc1cccc(C(F)(F)F)c1Nc1s[nH]c(=O)c1C(=O)N1CCOCC1 [Example 159],> 5 µM
5,COCCn1sc(N(C)c2ccccc2C(F)(F)F)c(-c2ncon2)c1=O [Example 160],> 5 µM
6,N#Cc1c(Nc2cccc(-c3ccc4cc[nH]c4c3)c2C(F)(F)F)s[nH]c1=O [Example 161],> 5 µM
7,N#Cc1c(N2CCc3ccccc32)s[nH]c1=O [Example 162],> 5 µM
8,N#Cc1c(Nc2cccc(C3CCNCC3)c2C(F)(F)F)s[nH]c1=O [Example 163],> 5 µM
9,C[C@@H](c1ccccc1)n1sc(Nc2c(Cl)cccc2Cl)c(C(=N)N2CCOCC2)c1=O [Example 165],> 5 µM
10,O=c1cc(Nc2ccccc2C(F)(F)F)s[nH]1 [Example 166],1 to 5 µM
11,C[C@@H](c1ccccc1)n1sc(Nc2c(Cl)cccc2Cl)c(C(=O)N2CCOCC2)c1=O [Example 167],1 to 5 µM
12,O=c1[nH]sc(Nc2ccccc2C(F)(F)F)c1-c1ccccc1 [Example 168],> 5 µM
13,Cc1c(Nc2ccccc2C(F)(F)F)s[nH]c1=O [Example 169],> 5 µM
14,N#Cc1c(NC2CCCCC2)s[nH]c1=O [Example 170],> 5 µM
15,CN(C(=O)c1c(Nc2ccccc2C(F)(F)F)s[nH]c1=O)c1ccccc1 [Example 172],1 to 5 µM
16,N#Cc1c(Nc2ccc3nc(C(F)(F)F)[nH]c(=O)c3c2)s[nH]c1=O [Example 173],> 5 µM
17,O=C(c1c(Nc2ccccc2C(F)(F)F)s[nH]c1=O)N1CC2CCC1CC2 [Example 174],> 5 µM
18,N#Cc1c(Nc2ccccc2C(F)(F)F)sn(CCCCCNC(=O)CCCC[C@@H]2SC[C@@H]3NC(=O)N[C@@H]32)c1=O [Example 175],< 1 µM
19,Cc1cc(C)n2c1CC1C=CC(CCC(=O)NCCCCCn3sc(Nc4ccccc4C(F)(F)F)c(C#N)c3=O)=[N+]1[B-]2(F)F (stereo not drawn) [Example 176],1 to 5 µM
20,Cc1cc(C)n2c1C=C1C=CC(CCC(=O)NCCOCCOCCn3sc(Nc4ccccc4C(F)(F)F)c(C#N)c3=O)=[N+]1[B-]2(F)F [Example 177],< 1 µM
21,N#Cc1c(Nc2ccccc2C(F)(F)F)sn(CCOCCOCCNC(=O)CCCC[C@@H]2SC[C@@H]3NC(=O)N[C@@H]32)c1=O [Example 178],< 1 µM
22,C#CCOCCOCCn1sc(Nc2ccccc2C(F)(F)F)c(C#N)c1=O [Example 179],< 1 µM
23,C#CCOCCOCCOCCn1sc(Nc2ccccc2C(F)(F)F)c(C#N)c1=O [Example 180],< 1 µM

# Tested on: mouse dorsal root ganglion (DRG) drop culture
# Experiment: Axon degeneration assay in mouse DRG drop culture
# Format: cell-based
# Conditions: protection of axon fragmentation, axonal transection or chemotoxic stimuli
# Procedure: This Example illustrates an in vitro axon degeneration assay used to characterize compounds of Formula I or Formula II. This assay is used to test the efficacy of the compounds of Formula I or Formula II to prevent axonal degeneration in a mouse dorsal root ganglion (DRG) drop culture.
# Mouse DRG Drop culture: Mouse dorsal root ganglion neurons (DRGs) were dissected out of E12.5 CD1 mice (50 ganglion per embryo) and incubated with 0.5% Trypsin solution containing 0.02% EDTA (Gibco) at 37° C. for 15 min. The cells were then triturated by gentle pipetting and washed 3 times with DRG growth medium (Neurobasal medium (Gibco) containing 2% B27 (Invitrogen), 100 ng/ml 2.5S NGF (Harland Bioproducts), […] 5-fluoro-2′deoxyuridine (Sigma), penicillin, and streptomycin). Cells were suspended in the DRG growth medium. DRG drop cultures were created by spotting 5000 cells/well into the center of each well of a 96-well tissue culture plate coated with poly-D-Lysine (0.1 mg/ml; Sigma) and laminin ([…]; Invitrogen). Cells were allowed to adhere to the plates in a humidified tissue culture incubator (5% CO2) for 15 min and then DRG growth medium was gently added ([…]).
# Axon degeneration assay: Axonal degeneration was stimulated either by manual axonal transection using a scalpel blade, or chemotoxic stimuli. After an appropriate experimental time period, the DRG cultures were fixed in 1% PFA plus sucrose and kept in the fridge prior to imaging. Bright-field images of DRG axons and cell bodies were collected using the 20× water immersion lens of a Phenix automated confocal microscope (PerkinElmer) and quantitation of axonal performed using in-house developed scripts (Acapella, PerkinElmer).
row,SMILES,IC50
1,N#Cc1c(O)nsc1Nc1ccccc1C(F)(F)F [Example 6],10 to 30 µM
2,Cc1ccccc1Nc1snc(O)c1C#N [Example 7],10 to 30 µM

# — patent publication US12624026B2, “Inhibitors of SARM1” (Disarm Therapeutics, Inc., priority 2018, dated 2026)
